# Data as given in US20240294508A1, “RIP1 MODULATORS INCLUDING AZETIDINE CYCLIC UREAS, PREPARATIONS, AND USES THEREOF” (SIRONAX LTD., priority 2021, published 2024).
# Tested on: HT-29 cells
# Assay: HT29 cells 0FBS assay in vitro: TNF-α/SMAC mimetic/zVAD-FMK induced necroptosis, CellTiter-Glo cell viability (RIP1 inhibitory activity)
# Format: cell-based
# Details: Homo sapiens, FBS free medium, TNF-α (10 ng/ml) + SMAC mimetic (6 uM) + zVAD-FMK (10 μM), 20 hours, geometric mean EC50
# From the text: Protocol for HT29 Cells 0FBS Assay In Vitro
# • Cell line: HT-29 (ATCC® HTB-38™) • Culture medium: McCOY's 5A, Gibco, Cat No. 16600-082 • FBS, Gibco, Cat No. 10099-141C • Trypsin: Gibco, Cat No. 25200-056 • DMSO: Sigma, Cat No. 67-68-5, 1L • Assay plate: Corning #3903 • Compound dilution plate: Corning #3357 • Inducers: TNFα, GenScript, Cat No. Z01001-50, • SmacM, Cat. No., HY-15989, MedChemExpress (MCE) • Z_VAD FMK, TargetMol, T6013 • Cell Titer-Glo® Luminescent Cell Viability Assay Kit: Promega, Cat No. G7573 • EnVision: PerkinElmer, 2105-0010
# 2. Cell Seeding of HT-29 Cells
# 1) HT-29 cells were checked every day to make sure they are healthy and growing as expected. They were split sub-culturing when were approximately 80% confluent.
# 2) First pre-warm the culture medium of McCOY's 5A medium (Gibco, Cat No. 16600-082) with 10% FBS (Gibco, Cat No. 10099-141C) in 37° C. water bath for at least 30 min.
# 3) Growing cells to desired level of confluency 80% in a T75 flask, aspirate the medium, and wash with warm PBS two times.
# 4) Add 2-3 ml fresh warm trypsin (Gibco, Cat No. 25200-056) solution. Transfer the flask to a 37° C. incubator.
# 5) After 5 minutes, tap the side of the flask, and examine the flask under a microscope for lifting. If necessary, return the cells to the incubator for an additional 5-10 minutes, with occasional tapping, until lifting is complete.
# 6) Quickly neutralize the trypsin reaction by adding 6-9 ml cell culture medium, then transfer the cells to sterile 15 ml conical tubes. Pellet the cells by centrifugation at 300×g for 7 minutes, then decant the supernatant.
# 7) Resuspend the cells in fresh cell culture medium. Do cell counting with hemocytometer.
# 8) Seed 100 μl of 5,000 cells into each well of the sterile 96-well cell culture plate (Corning 3903) and culture overnight at 37° C. with 5% CO2.
# 3. Compounds Titration and Treatment of HT-29 Cells
# 1) All batches of compounds (CPDs0 (e.g., compound 1-169) were dissolved in DMSO (Dimethyl sulfoxide) as 20 mM stock solution.
# 2) Take 3 ul 20 mM stock solution of CPDs to […] DMSO and mix well, continue the titration ratio of 1:3 (20 ul CPDs+40 ul DMSO), e.g., to give solutions of CPDS at 6.6 mM, 2.2 mM, etc., till the 10 points end.
# 3) Take out assay plates with HT-29 cells from incubator, remove all culture medium then wash 1 time with 1×PBS, and change fresh McCOY's 5A medium of FBS free with a cocktail of TNF-α (10 ng/ml), the SMAC mimetic (6 uM) and zVAD-FMK (10 μM) to stimulate the HT-29 cells to increase pRIPK1 levels and necroptosis.
# 4) Add 0.5 μL of the diluted compound to the corresponding 96-well assay plates.
# 5) Incubate the assay plates for 20 hours at 37° C. with 5% CO2.
# 4. Performing Cell Viability Detection of HT-29 Cells after Treated with Compounds
# 1) The CellTiter-Glo® Luminescent Cell Viability Assay was employed to detect the ATP levels of viable HT-29 cells.
# 2) Equilibrate the CellTiter-Glo® buffer and the lyophilized substrate to room temperature prior to use.
# 3) Resuspend the CellTiter-Glo® substrate with CellTiter-Glo® buffer, mix by gently vortexing to obtain a homogeneous solution.
# 4) Pipette 20 μl the enzyme/substrate mixture by multi-channel pipette into the 96-well assay plates from step 5) under the Compounds titration and treatment stage.
# 5) Place the plates on an orbital shaker and mix the contents for 3 minutes to induce cell lysis.
# 6) Then allow the plates to incubate at room temperature for 10 minutes to stabilize luminescent signal.
# 7) Read and record luminescence signal with EnVision.
# 8) The geometric mean EC50 of the compounds were calculated from 10 points response dose with duplicate. In Table 2, activity is provided as follows: +++=0.1 nM≤EC50<100 nM; ++=100 nM≤EC5 1000 nM; […].
row,SMILES,EC50 [nM]
1,"Cc1nn(-c2cc(OC3CN(C(=O)N4N=CC[C@@H]4c4cc(F)cc(F)c4F)C3)c(F)cn2)c(C)c1C(N)=O [Compound 103, (R)-1-(5-fluoro-4-((1-(5-(2,3,5-trifluorophenyl)-4,5-dihydro-1H-pyrazole-1-carbonyl)azetidin-3-yl)oxy)pyridin-2-yl)-3,5-dimethyl-1H-pyrazole-4-carboxamide]",1000 to 10000
2,"Cc1c(-c2cc(OC3CN(C(=O)N4N=CC[C@H]4c4cccc(F)c4)C3)c(F)cn2)nn(C)c1C(N)=O [Compound 111, (S)-3-(5-fluoro-4-((1-(5-(3-fluorophenyl)-4,5-dihydro-1H-pyrazole-1-carbonyl)azetidin-3-yl)oxy)pyridin-2-yl)-1,4-dimethyl-1H-pyrazole-5-carb oxamide]",0.1 to 100
3,"COc1ncccc1-c1ncc(F)c(OC2CN(C(=O)N3N=CC[C@H]3c3cc(F)cc(F)c3)C2)n1 [Compound 163, (S)-(5-(3,5-difluorophenyl)-4,5-dihydro-1H-pyrazol-1-yl)(3-((5-fluoro-2-(2-methoxypyridin-3-yl)pyrimidin-4-yl)oxy)azetidin-1-yl)methanone]",0.1 to 100
4,"Cn1ncc(Cl)c1-c1ncc(F)c(OC2CN(C(=O)N3N=CC[C@H]3c3cncc(F)c3)C2)n1 [Compound 32, (S)-(3-((2-(4-chloro-1-methyl-1H-pyrazol-5-yl)-5-fluoropyrimidin-4-yl)oxy)azetidin-1-yl)(5-(5-fluoropyridin-3-yl)-4,5-dihydro-1H-pyrazol-1-yl)methanone]",0.1 to 100
5,"CCn1nccc1-c1cc(OC2CN(C(=O)N3N=CC[C@H]3c3cc(F)cc(C#N)c3)C2)c(F)cn1 [Compound 12, (S)-3-(1-(3-((2-(1-ethyl-1H-pyrazol-5-yl)-5-fluoropyridin-4-yl)oxy)azetidine-1-carbonyl)-4,5-dihydro-1H-pyrazol-5-yl)-5-fluorobenzonitrile]",0.1 to 100
6,"Cc1nn(-c2cc(OC3CN(C(=O)N4N=CC[C@H]4c4cc(F)cc(F)c4F)C3)c(F)cn2)c(C)c1C(=O)O [Compound 104, (S)-1-(5-fluoro-4-((1-(5-(2,3,5-trifluorophenyl)-4,5-dihydro-1H-pyrazole-1-carbonyl)azetidin-3-yl)oxy)pyridin-2-yl)-3,5-dimethyl-1H-pyrazole-4-carboxylic acid]",0.1 to 100
7,"Cc1cnn(C)c1-c1ccc(F)c(OC2CN(C(=O)N3N=CC[C@H]3c3cc(F)cc(C#N)c3)C2)c1 [Compound 60, (S)-3-(1-(3-(5-(1,4-dimethyl-1H-pyrazol-5-yl)-2-fluorophenoxy)azetidine-1-carbonyl)-4,5-dihydro-1H-pyrazol-5-yl)-5-fluorobenzonitrile]",0.1 to 100
8,"Cc1c(-c2cc(OC3CN(C(=O)N4N=CC[C@H]4c4cc(F)cc(F)c4F)C3)c(F)cn2)nn(C)c1C(N)=O [Compound 126, 3-(5-fluoro-4-((1-(5-(2,3,5-trifluorophenyl)-4,5-dihydro-1H-pyrazole-1-carbonyl)azetidin-3-yl)oxy)pyridin-2-yl)-1,4-dimethyl-1H-pyrazole-5-carboxamide]",0.1 to 100
9,"Cn1ccnc1-c1ccc(F)c(OC2CN(C(=O)N3N=CC[C@H]3c3cc(F)cc(C#N)c3)C2)n1 [Compound 13, (S)-3-fluoro-5-(1-(3-((3-fluoro-6-(1-methyl-1H-imidazol-2-yl)pyridin-2-yl)oxy)azetidine-1-carbonyl)-4,5-dihydro-1H-pyrazol-5-yl)benzonitrile]",0.1 to 100
10,CNC(=O)c1c(C)nn(-c2cc(OC3CN(C(=O)N4N=CC[C@H]4c4ccccc4)C3)c(F)cn2)c1C [Compound 78],0.1 to 100
11,"Cc1nn(-c2cc(OC3CN(C(=O)N4N=CC[C@H]4c4cc(F)cc(F)c4)C3)c(Cl)cn2)c(C)c1C#N [Compound 159, (S)-1-(5-chloro-4-((1-(5-(3,5-difluorophenyl)-4,5-dihydro-1H-pyrazole-1-carbonyl)azetidin-3-yl)oxy)pyridin-2-yl)-3,5-dimethyl-1H-pyrazole-4-carbonitrile]",0.1 to 100
